# Measured values from ChEMBL document CHEMBL4043196, “Efficient synthesis of the GABAA receptor agonist trans-4-aminocrotonic acid (TACA)” (Bioorg Med Chem Lett, 2017).
# The source made the active and inactive calls. The rule behind the calls is not given here.
# How the values were obtained:
# Haemonchus contortus = assay: Agonist activity at Heaemonchus contortus UNC-49B/C GABAA receptor expressed in Xenopus laevis oocytes at 500 uM by two-electrode voltage-clamp method; type: cell-based
# [1] = Agonist activity at Heaemonchus contortus UNC-49B/C GABAA receptor expressed in Xenopus laevis oocytes by two-electrode voltage-clamp method; type: cell-based; conditions: Haemonchus contortus
SMILES,Activity (Haemonchus contortus),EC50 [1] [µM]
NCC(Br)CC(=O)O (stereo not drawn),inactive,–
NCC(Cl)CC(=O)O (stereo not drawn),inactive,–
NC/C=C/C(=O)O [t-4-AMINOCROTONIC ACID (TACA)],–,290
